Experimental data from patent publication US12139520B2 (priority 2020, dated 2024).
Numbered stars: 1 amine (or outer) side, 2 acyl side, 3 side chain; on linkers, the order of the positions; unused ones are H or OH. Bridge positions count the residues as written; N and C are the ends. Square brackets hold non-standard residues; d marks the D form. Side chains are listed from the residue outwards. Peptide text beside a SMILES is read from it. * marks the point of attachment. C20 diacid = O=C(O)CCCCCCCCCCCCCCCCCCC(=O)*; γGlu = O=C(O)[C@H](CCC(=O)[*:2])N[*:1]; Hyp = O=C(O)[C@@H]1C[C@@H](O)CN1; AEEA = NCCOCCOCC(=O)O

Experiments:
[1] = biological target: T1, hAMY3 receptor (Homo sapiens, UniProt O60896+P30988); test: cAMP assay for in vitro receptor activation, hAMY3-R; format: cell-based; conditions: cAMP assay, hAMY3 receptor; read-out: hAMY3R EC50
T1 sequence (P30988 25-474): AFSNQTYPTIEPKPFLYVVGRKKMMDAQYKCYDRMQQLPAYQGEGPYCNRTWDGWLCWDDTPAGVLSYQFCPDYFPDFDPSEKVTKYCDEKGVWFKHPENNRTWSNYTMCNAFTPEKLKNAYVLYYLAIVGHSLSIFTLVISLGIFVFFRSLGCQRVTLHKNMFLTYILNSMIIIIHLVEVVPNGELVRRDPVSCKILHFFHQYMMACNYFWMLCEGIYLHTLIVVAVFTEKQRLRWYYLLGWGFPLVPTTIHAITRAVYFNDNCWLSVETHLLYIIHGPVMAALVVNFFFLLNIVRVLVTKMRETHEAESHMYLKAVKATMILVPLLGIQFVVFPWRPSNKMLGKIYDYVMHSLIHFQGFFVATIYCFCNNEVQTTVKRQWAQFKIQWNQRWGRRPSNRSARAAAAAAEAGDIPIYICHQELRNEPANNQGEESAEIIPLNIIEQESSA
T1 sequence (O60896 24-148 partner): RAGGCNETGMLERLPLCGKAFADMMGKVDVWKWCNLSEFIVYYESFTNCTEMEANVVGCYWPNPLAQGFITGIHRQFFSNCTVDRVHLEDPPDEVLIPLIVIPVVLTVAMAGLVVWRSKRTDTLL
Procedure, shortened: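 Receptor activation was measured as cAMP accumulation in a monoclonal cell line stably overexpressing hAMY3. Stimulation with graded doses lasted 30 min at room temperature in the presence of 0.5 mM IBMX, with human amylin as positive control.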

[2] = biological target: hAM1 receptor (Homo sapiens, UniProt O60895+Q16602); test: cAMP assay for in vitro receptor activation, hAM1-R; format: cell-based; conditions: cAMP assay, hAM1 receptor; read-out: hAM1R EC50
Chain of hAM1 receptor (Q16602 23-461): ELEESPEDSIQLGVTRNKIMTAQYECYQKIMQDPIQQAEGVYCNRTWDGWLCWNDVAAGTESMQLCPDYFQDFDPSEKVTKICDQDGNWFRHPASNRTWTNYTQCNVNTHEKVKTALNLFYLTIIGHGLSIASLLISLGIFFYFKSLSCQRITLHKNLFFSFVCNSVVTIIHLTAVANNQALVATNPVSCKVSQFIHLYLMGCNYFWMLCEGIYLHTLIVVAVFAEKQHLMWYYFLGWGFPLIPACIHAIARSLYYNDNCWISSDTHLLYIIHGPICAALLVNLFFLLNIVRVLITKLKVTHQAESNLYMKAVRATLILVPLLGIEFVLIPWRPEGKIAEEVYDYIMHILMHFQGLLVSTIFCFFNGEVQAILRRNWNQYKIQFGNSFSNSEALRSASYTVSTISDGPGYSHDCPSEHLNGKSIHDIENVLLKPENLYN
Chain of hAM1 receptor (O60895 43-175 partner): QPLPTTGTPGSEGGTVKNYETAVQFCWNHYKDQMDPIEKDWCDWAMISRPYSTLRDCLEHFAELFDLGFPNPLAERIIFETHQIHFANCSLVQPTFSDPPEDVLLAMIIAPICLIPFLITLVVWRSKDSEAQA
Procedure, shortened: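 Read-out is intracellular cAMP as a measure of receptor activation. Cells stably overexpressing hAM1 were subcloned to a monoclonal line, then thawed and seeded at 8000 cells/well in DPBS with 0.05% casein and the phosphodiesterase inhibitor IBMX at 0.5 mM.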

[3] = Acute food intake study in lean rats; format: in vivo, rat; conditions: single SC injection, lean healthy rats; for Average cumulative food intake: up to 48 h, P < 0.001 vs vehicle
Procedure: General Protocols for Acute Food Intake Study
The effect on cumulative food intake was measured in male Sprague Dawley rats (6 weeks of age, Taconic, Denmark) following a single dose using a fully automated food intake monitoring system (HM-2; MBRose ApS, Faaborg, Denmark), allowing for advanced synchronous real-time monitoring of food intake behaviour of individual animals. The animals were housed in groups of 4 in a light-, temperature-, and humidity-controlled room (a 12/12 LD cycle, lights on at 02:00 AM; 22±2° C.; 50% relative humidity). The mice had ad libitum access to regular chow diet (Altromin 1324, Brogaarden A/S, Lynge, Denmark) and domestic quality tap water. Mice arrived at day 7, and a minimum of 5 days of habituation to the system was allowed prior to beginning of the study. During these days, the animals were handled daily to accustom them to the experimental paradigm. On the day of dosing, the animals were randomized into groups according to body weight. Animals were fasted for four hours prior to dosing. Animals were dosed SC 30 or 180 min prior to lights out, and food intake data were collected automatically for a total of 48 h post-dosing with automatic food recordings every 5 min.

Compound	EC50 [1] [nM]	EC50 [2] [nM]	cumulative food intake, % to vehicle ([3]; 10 nmol/kg) [%]	Average cumulative food intake ([3]; 10 nmol/kg) [g]	cumulative food intake, % to vehicle ([3]; 30 nmol/kg) [%]	Average cumulative food intake ([3]; 30 nmol/kg) [g]
CC[C@H](C)[C@H](NC(=O)[C@H](CCC(N)=O)NC(=O)[C@H](CCC(=O)O)NC(=O)[C@H](C)NC(=O)[C@H](CC(C)C)NC(=O)[C@H](CCCNC(=N)N)NC(=O)[C@H](CCC(N)=O)NC(=O)[C@@H](NC(=O)[C@@H](NC(=O)[C@@H]1CSSC[C@H](NC(=O)[C@@H](N)CCCCN)C(=O)N[C@@H](CCCCNC(=O)COCCOCCNC(=O)COCCOCCNC(=O)CC[C@H](NC(=O)CCCCCCCCCCCCCCCCCCC(=O)O)C(=O)O)C(=O)N[C@@H]([C@@H](C)O)C(=O)N[C@@H](C)C(=O)N[C@@H]([C@@H](C)O)C(=O)N1)[C@@H](C)O)C(C)C)C(=O)N[C@@H](Cc1ccc(O)cc1)C(=O)N[C@@H](CCC(N)=O)C(=O)N[C@@H](Cc1ccccc1)C(=O)N[C@H](C(=O)N[C@@H](CC(=O)O)C(=O)N[C@@H](CCCCN)C(=O)N[C@@H](CC(=O)O)C(=O)N[C@@H](CCCCN)C(=O)N[C@@H](CC(=O)O)C(=O)N[C@@H](CC(N)=O)C(=O)N[C@H](C(=O)N[C@@H](C)C(=O)N1CCC[C@H]1C(=O)N1CCC[C@H]1C(=O)N[C@H](C(=O)N[C@@H](CC(N)=O)C(=O)N[C@H](C(=O)NCC(=O)N[C@@H](CO)C(=O)N[C@@H](CC(N)=O)C(=O)NCC(=O)N1C[C@H](O)C[C@H]1C(N)=O)C(C)C)[C@@H](C)O)C(C)C)[C@@H](C)O [compound 36] (H-KCK([AEEA-AEEA-γGlu-C20 diacid])TATCTVQRLAEQIYQFTDKDKDNVAPPTNVGSNG[Hyp]-NH2; disulfide 2-7; N-terminus assumed)	0.009	> 5000	55.61	23.3		
CC[C@H](C)[C@H](NC(=O)[C@H](CCC(N)=O)NC(=O)[C@H](Cc1c[nH]cn1)NC(=O)[C@H](C)NC(=O)[C@H](CC(C)C)NC(=O)[C@H](CCCNC(=N)N)NC(=O)[C@H](CCC(N)=O)NC(=O)[C@@H](NC(=O)[C@@H](NC(=O)[C@@H]1CSSC[C@H](NC(=O)[C@H](CCCCN)NC(=O)CC[C@H](NC(=O)CCCCCCCCCCCCCCCCCCC(=O)O)C(=O)O)C(=O)N[C@@H](CC(N)=O)C(=O)N[C@@H]([C@@H](C)O)C(=O)N[C@@H](C)C(=O)N[C@@H]([C@@H](C)O)C(=O)N1)[C@@H](C)O)C(C)C)C(=O)N[C@@H](Cc1ccc(O)cc1)C(=O)N[C@@H](CCC(N)=O)C(=O)N[C@@H](Cc1ccccc1)C(=O)N[C@H](C(=O)N[C@@H](CC(=O)O)C(=O)N[C@@H](CCCCN)C(=O)N[C@@H](CC(=O)O)C(=O)N[C@@H](CCCCN)C(=O)N[C@@H](CC(=O)O)C(=O)N[C@@H](CC(N)=O)C(=O)N[C@H](C(=O)N[C@@H](C)C(=O)N1CCC[C@H]1C(=O)N1CCC[C@H]1C(=O)N[C@H](C(=O)N[C@@H](CCCCN)C(=O)N[C@H](C(=O)NCC(=O)N[C@@H](CO)C(=O)N[C@@H](CC(N)=O)C(=O)NCC(=O)N1C[C@H](O)C[C@H]1C(N)=O)C(C)C)[C@@H](C)O)C(C)C)[C@@H](C)O [compound 60] ({C20 diacid-γGlu}-KCNTATCTVQRLAHQIYQFTDKDKDNVAPPTKVGSNG[Hyp]-NH2; disulfide 2-7)	0.012	> 5000	69.59	30.9	45.72	20.3
CC[C@H](C)[C@H](NC(=O)[C@H](CCC(N)=O)NC(=O)[C@H](Cc1c[nH]cn1)NC(=O)[C@H](C)NC(=O)[C@H](CC(C)C)NC(=O)[C@H](CCCNC(=N)N)NC(=O)[C@H](CCC(N)=O)NC(=O)[C@@H](NC(=O)[C@@H](NC(=O)[C@@H]1CSSC[C@H](NC(=O)[C@H](CCCCN)NC(=O)CC[C@H](NC(=O)CCCCCCCCCCCCCCCCCCC(=O)O)C(=O)O)C(=O)N[C@@H](CC(N)=O)C(=O)N[C@@H]([C@@H](C)O)C(=O)N[C@@H](C)C(=O)N[C@@H]([C@@H](C)O)C(=O)N1)[C@@H](C)O)C(C)C)C(=O)N[C@H](C(=O)N[C@@H](CCC(N)=O)C(=O)N[C@@H](Cc1ccccc1)C(=O)N[C@H](C(=O)N[C@@H](CC(=O)O)C(=O)N[C@@H](CCCCN)C(=O)N[C@@H](CC(=O)O)C(=O)N[C@@H](CCCCN)C(=O)N[C@@H](CC(=O)O)C(=O)N[C@@H](CC(N)=O)C(=O)N[C@H](C(=O)N[C@@H](C)C(=O)N1CCC[C@H]1C(=O)N1CCC[C@H]1C(=O)N[C@H](C(=O)N[C@@H](CC(N)=O)C(=O)N[C@H](C(=O)NCC(=O)N[C@@H](CO)C(=O)N[C@@H](CC(N)=O)C(=O)NCC(=O)N1C[C@H](O)C[C@H]1C(N)=O)C(C)C)[C@@H](C)O)C(C)C)[C@@H](C)O)C(C)C [compound 85] ({C20 diacid-γGlu}-KCNTATCTVQRLAHQIVQFTDKDKDNVAPPTNVGSNG[Hyp]-NH2; disulfide 2-7)	0.015	> 5000	45.70	18.6		
CC[C@H](C)[C@H](NC(=O)[C@H](C)NC(=O)CNC(=O)[C@H](Cc1ccccc1)NC(=O)[C@H](CC(N)=O)NC(=O)[C@H](CC(N)=O)NC(=O)[C@H](CO)NC(=O)[C@H](CO)NC(=O)[C@H](Cc1c[nH]cn1)NC(=O)[C@@H](NC(=O)[C@H](CC(C)C)NC(=O)[C@H](Cc1ccccc1)NC(=O)[C@H](CC(N)=O)NC(=O)[C@H](C)NC(=O)[C@H](CC(C)C)NC(=O)[C@H](CCCNC(=N)N)NC(=O)[C@H](CCC(N)=O)NC(=O)[C@@H](NC(=O)[C@H](C)NC(=O)[C@@H]1CSSC[C@H](NC(=O)[C@@H](N)CCCCN)C(=O)N[C@@H](CC(N)=O)C(=O)N[C@@H]([C@@H](C)O)C(=O)N[C@@H](C)C(=O)N[C@@H]([C@@H](C)O)C(=O)N1)[C@@H](C)O)C(C)C)C(=O)N[C@@H](C)C(=O)N1CCC[C@H]1C(=O)N[C@@H](CO)C(=O)N[C@H](C(=O)N[C@@H](CCCCN)C(=O)N[C@H](C(=O)NCC(=O)N[C@@H](CO)C(=O)N[C@@H](CC(N)=O)C(=O)NCC(=O)N[C@@H](Cc1ccc(O)cc1)C(N)=O)C(C)C)[C@@H](C)O [compound 93] (H-KCNTATCATQRLANFLVHSSNNFGAIAPSTKVGSNGY-NH2; disulfide 2-7; N-terminus assumed)	0.016	> 5000	46.93	19.1		
